Measured values from patent publication US20180207111A1, “IMMUNOTHERAPY FOR CASR-EXPRESSING CANCER (E.G. NEUROBLASTOMA)” (HOSPITAL SANT JOAN DE DEU, priority 2015, published 2018).

Columns and labels:
[1] = Plasmatic ionic Ca2+ and tolerability in xenograft-bearing mice; format: in vivo
From the text: FIG. 2 comprises graphs showing (A) Effect of Cinacalcet treatment on survival (%) in an in vivo neuroblastoma model treated with Cinacalcet (triangle) or vehicle (circle) over time (days); (B) Plasmatic ionic Ca^2+ concentrations (mmol/L) in mice receiving Cinacalcet (triangle) or vehicle (circle) over time (weeks).
An in vivo model of neuroblastoma was generated in four to six-week-old female athymic Nude-Foxn1 nu/nu mice (Charles Rivers), wherein LA-N-1 cells (10^7) were subcutaneously inoculated. Tumors were allowed to grow until dimensions reached 7×7 mm. Then mice were randomized to receive either vehicle (described below) or Cinacalcet (10 mg/kg/day) by oral gavage 6 days per week until tumor volume reached 2 cm^3. Cinacalcet was prepared with Mimpara® tablets (Amgen). […] Dimensions of tumors were measured thrice a week using a digital caliper. Tumor volume was calculated as L×W^2/2 in which “L” indicates length in mm and “W” indicates width in mm. At the end of the experiment (each mouse was sacrificed when the corresponding xenograft reached the final pre-determined volume 2 cm^3), tumors were excised and half of each specimen was frozen in liquid nitrogen for molecular analyses and the other was fixed in 10% formalin. […]

SH-SY5Y CaSR/GFP = experiment: RT-qPCR mRNA expression in SH-SY5Y CaSR/GFP neuroblastoma cells grown with Cinacalcet; format: cell-based, Homo sapiens; conditions: 1 μM Cinacalcet vs DMSO, up to 21 days
Protocol: Three neuroblastoma cell lines LA-N-1, SK-N-LP and SH-SY5Y were used for this purpose. […] No expression of the CaSR is detectable in SH-SY5Y either. Thus, SK-N-LP and SH-SY5Y were stably transfected with pCMV-CaSR-GFP or pCMV-GFP. All cell lines were grown in the presence of 1 μM Cinacalcet (Selleck Chemicals, S1260) or DMSO for 21 days in P100 plates. Morphology was assessed daily. Total RNA was isolated at days 1, 3, 5, 7, 10, 14 and 21. Several markers were analyzed by RT-qPCR using SYBRgreen and specific primers or Taqman technology and gene-specific Assays-on-Demand (Applied Biosystems) (Table 1).
These features reached maximal expression between days 7 and 14 (FIG. 1). […] Neuroblastoma cytodifferentiation is an indication of this tumor becoming more benign, less proliferative. […] Moreover, upregulation of these differentiation-associated genes and CTAs both in vitro and in vivo (see Examples 2-4) validates the proposed in vitro model (doses used, time of exposure, etc) as a good model to evaluate neuroblastoma response to treatment with Cinacalcet.

LA-N-1 xenografts = experiment: Genome-wide expression analysis of xenografts, Affymetrix Human Gene Array 2.1 ST; format: in vivo
Protocol: Total RNA was isolated from 8 xenografts exposed to Cinacalcet (C) and 8 from the control group (V). These were the last 8 tumors excised in each group, so that analyzed xenografts were those exposed to the longest period of treatment (V5-V12 and C4-C11). Two different mRNA expression analyses were conducted: Genome-wide expression analysis by microarrays (Example 3) and by RT-qPCR (Example 4).
Genome-wide expression analyses were performed using Affymetrix Human and Mouse Gene Array 2.1 ST (Affymetrix, reference number 902136 for human gene array and 902120 for mouse gene array) as per manufacturer's protocol. Procedures to analyze results included: Quality control of the arrays (following this step, xenograft C6 was removed from further analyses); filtering and normalization; selection of differentially expressed genes; single comparison (treated versus control samples); list of differentially expressed genes ranked by significance; Volcano plots showing the most differentially expressed genes; heatmaps of the clustered expression profiles; and analysis of biological significance through enrichment analysis against the Gene Ontologies, KEGG (Kyoto Encyclopedia of Genes and Genomes) and Ingenuity pathways.
However, these differences of gene expression were not statistically significant, adjusted P-value >0.05 (Table 3). Nonetheless, in this first analysis, corresponding to heatmap on FIG. 3, it was apparent that a group of genes were specifically modulated in the three tumors exposed to Cinacalcet for the longest period of time. This was confirmed by a second genome-wide expression analysis that examined differentially expressed genes in these three specimens (C9-C11) compared to the 8 vehicle-treated tumors (V5-V12) (FIG. 4).

[2] = three longest-treated xenografts C9-C11 vs vehicle V5-V12, adjusted P 0.00986984
[3] = three longest-treated xenografts C9-C11 vs vehicle V5-V12, adjusted P 0.01746325
[4] = three longest-treated xenografts C9-C11 vs vehicle V5-V12, adjusted P 0.01874439
[5] = three longest-treated xenografts C9-C11 vs vehicle V5-V12, adjusted P 0.02269447
[6] = three longest-treated xenografts C9-C11 vs vehicle V5-V12, adjusted P 0.0249218
[7] = three longest-treated xenografts C9-C11 vs vehicle V5-V12, adjusted P 0.04520061
[8] = three longest-treated xenografts C9-C11 vs vehicle V5-V12, adjusted P 0.04907024
[9] = three longest-treated xenografts C9-C11 vs vehicle V5-V12, adjusted P 0.05146784
[10] = xenografts C4, C5, C7-C11 vs vehicle V5-V12, 10 mg/kg/day oral, adjusted P 0.35366385
[11] = xenografts C4, C5, C7-C11 vs vehicle V5-V12, 10 mg/kg/day oral, adjusted P 0.52209349
[12] = xenografts C4, C5, C7-C11 vs vehicle V5-V12, 10 mg/kg/day oral, adjusted P 0.61235652

## C[C@@H](NCCCc1cccc(C(F)(F)F)c1)c1cccc2ccccc12 [Cinacalcet]
[1]; mice, 10 mg/kg/day oral gavage, FIG. 2B
  Plasmatic ionic Ca2+ concentration: Mild, non-symptomatic, hypocalcemia
[1]; mouse, in vivo, po, 10 mg/kg/day
  Signs of toxicity: No signs of toxicity were observed
SH-SY5Y CaSR/GFP
  CTCFL mRNA fold increase: no expression
  MAGEA2 mRNA fold increase: 2.4 fold
  MAGEA3 mRNA fold increase: 14.6 fold
  NFL mRNA fold increase: 2.3 fold
  NTRK1 mRNA fold increase: 2.9 fold
  NTRK3 mRNA fold increase: 4.7 fold
  S100-β mRNA fold increase: 2.2 fold
  SSX4/4B mRNA fold increase: 3.45 fold
  TUBB3 mRNA fold increase: 1.7 fold
SH-SY5Y CaSR/GFP; primer pair GAGE P1
  GAGE-P1 mRNA fold increase: 1.4 fold
SH-SY5Y CaSR/GFP; primer pair GAGE P2
  GAGE-P2 mRNA fold increase: 7.9 fold
SH-SY5Y CaSR/GFP; primer pair GAGE P3
  GAGE-P3 mRNA fold increase: 2.5 fold
LA-N-1 xenografts; three longest-treated xenografts C9-C11 vs vehicle V5-V12, adjusted P 0.00358764
  Log fold change, probe 17104825 (CXorf49//CXorf49B): 1.857
LA-N-1 xenografts; [2]
  Log fold change, probe 16695923 (FAM78B): 1.543
  Log fold change, probe 17070589 (CNBD1): 1.801
  Log fold change, probe 17103272 (SSX4B//SSX4): 1.389
  Log fold change, probe 17104821 (CXorf49//CXorf49B): 2.714
LA-N-1 xenografts; three longest-treated xenografts C9-C11 vs vehicle V5-V12, adjusted P 0.01361569
  Log fold change, probe 16972634 (LOC285500): 1.359
LA-N-1 xenografts; three longest-treated xenografts C9-C11 vs vehicle V5-V12, adjusted P 0.01682153
  Log fold change, probe 17103626 (GAGE12G//GAGE12F//GAGE12I//GAGE7//... GAGE family, Entrez 645073): 2.202
LA-N-1 xenografts; [3]
  Log fold change, probe 17103647 (GAGE2A//GAGE2C//GAGE2B//GAGE2D//... GAGE family, Entrez 729447): 2.059
  Log fold change, probe 17103679 (GAGE2A//GAGE2C//GAGE12G//GAGE12F//... GAGE family, Entrez 729447): 2.03
LA-N-1 xenografts; [4]
  Log fold change, probe 16837128 (PRKCA): 1.165
  Log fold change, probe 16926807 (CECR7): 1.23
  Log fold change, probe 17103653 (GAGE12C//GAGE12D//GAGE12E//GAGE12G//... GAGE family, Entrez 729422): 2.183
  Log fold change, probe 17103655 (GAGE12C//GAGE12D//GAGE12E//GAGE12H//... GAGE family, Entrez 729422): 2.032
  Log fold change, probe 17103673 (GAGE12G//GAGE12C//GAGE12D//GAGE12E//... GAGE family, Entrez 645073): 1.962
LA-N-1 xenografts; [5]
  Log fold change, probe 16982161 (PDLIM3): 1.187
  Log fold change, probe 16986694 (SPZ1): 1.239
  Log fold change, probe 17103614 (GAGE12J//GAGE2D//GAGE2E//GAGE8//... GAGE family, Entrez 729396): 1.853
  Log fold change, probe 17103620 (GAGE13//GAGE12D//GAGE12E//GAGE12B//... GAGE family, Entrez 645051): 2.07
  Log fold change, probe 17103690 (GAGE12H//GAGE12C//GAGE12D//GAGE12E//... GAGE family, Entrez 729442): 1.931
  Log fold change, probe 17110576 (SSX4//SSX4B): 1.272
LA-N-1 xenografts; three longest-treated xenografts C9-C11 vs vehicle V5-V12, adjusted P 0.02361429
  Log fold change, probe 16938527 (RBMS3): 1.243
LA-N-1 xenografts; [6]
  Log fold change, probe 16711753 (PROSER2-AS1): 1.36
  Log fold change, probe 16838249 (LOC100507351): 1.078
  Log fold change, probe 17111994 (RGAG4): 1.076
LA-N-1 xenografts; three longest-treated xenografts C9-C11 vs vehicle V5-V12, adjusted P 0.03166044
  Log fold change, probe 17113928 (TENM1): 1.577
LA-N-1 xenografts; three longest-treated xenografts C9-C11 vs vehicle V5-V12, adjusted P 0.04211565
  Log fold change, probe 16679142 (RYR2): 1.356
LA-N-1 xenografts; three longest-treated xenografts C9-C11 vs vehicle V5-V12, adjusted P 0.04288827
  Log fold change, probe 17043613 (LOC100505938): 1.14
LA-N-1 xenografts; [7]
  Log fold change, probe 16970118 (SYNPO2): 1.722
  Log fold change, probe 17115014 (GABRA3): 1.248
LA-N-1 xenografts; three longest-treated xenografts C9-C11 vs vehicle V5-V12, adjusted P 0.0462006
  Log fold change, probe 16732397 (POU2F3): 1.148
LA-N-1 xenografts; [8]
  Log fold change, probe 16752147 (NEUROD4): 1.009
  Log fold change, probe 16928510 (SEZ6L): 1.17
LA-N-1 xenografts; [9]
  Log fold change, probe 16812942 (NTRK3): 1.186
  Log fold change, probe 16920617 (CTCFL): 1.866
LA-N-1 xenografts; [10]
  Log fold change, probe 16837226 (SNORA38B): 1.107
  Log fold change, probe 16902703 (POTEF): 1.124
LA-N-1 xenografts; xenografts C4, C5, C7-C11 vs vehicle V5-V12, 10 mg/kg/day oral, adjusted P 0.39648602
  Log fold change, probe 17103626 (GAGE12G//GAGE12F//GAGE12I//GAGE7//... GAGE family, Entrez 645073): 1.489
LA-N-1 xenografts; xenografts C4, C5, C7-C11 vs vehicle V5-V12, 10 mg/kg/day oral, adjusted P 0.4625512
  Log fold change, probe 17103647 (GAGE2A//GAGE2C//GAGE2B//GAGE2D//... GAGE family, Entrez 729447): 1.341
LA-N-1 xenografts; xenografts C4, C5, C7-C11 vs vehicle V5-V12, 10 mg/kg/day oral, adjusted P 0.47520907
  Log fold change, probe 17103679 (GAGE2A//GAGE2C//GAGE12G//GAGE12F//... GAGE family, Entrez 729447): 1.318
LA-N-1 xenografts; [11]
  Log fold change, probe 17103614 (GAGE12J//GAGE2D//GAGE2E//GAGE8//... GAGE family, Entrez 729396): 1.191
  Log fold change, probe 17103620 (GAGE13//GAGE12D//GAGE12E//GAGE12B//... GAGE family, Entrez 645051): 1.314
  Log fold change, probe 17103653 (GAGE12C//GAGE12D//GAGE12E//GAGE12G//... GAGE family, Entrez 729422): 1.354
  Log fold change, probe 17103655 (GAGE12C//GAGE12D//GAGE12E//GAGE12H//... GAGE family, Entrez 729422): 1.313
  Log fold change, probe 17103673 (GAGE12G//GAGE12C//... GAGE family, Entrez 645073): 1.257
  Log fold change, probe 17103690 (GAGE12H//GAGE12C//GAGE12D//GAGE12E//... GAGE family, Entrez 729442): 1.261
LA-N-1 xenografts; [12]
  Log fold change, probe 16920617 (CTCFL): 1.137
  Log fold change, probe 17104821 (CXorf49//CXorf49B): 1.423
